In ChEMBL document CHEMBL3885861, “Open TG-GATES”:

Species: Rattus norvegicus
Assay: Open TG-GATES - Regimen: Single
Format: toxicity, organism-based, Sprague-Dawley
Set-up: regimen Single, gender Male, age 6 weeks
Details: in vivo, po, 10 mg/kg, route gavage, dose level Low; for APTT / Bas / Eos / Fbg / Hb / Ht / Lym / MCH / MCHC / MCV / Mono / Neu / PT / Plat / RBC / Ret / WBC: tissue Blood; for KIDNEY_L / KIDNEY_R / KIDNEY_TOTAL: tissue Kidney; for LIVER: tissue Liver; for ALP / ALT / AST / BUN / CRE / Ca / Cl / DBIL / GLC / IP / K / LDH / Na / PL / RALB / TBIL / TC / TG / TP / gamma-GTP: tissue Plasma

Structure (SMILES): COc1cc([C@@H]2c3cc4c(cc3[C@@H](O[C@@H]3O[C@@H]5CO[C@@H](C)O[C@H]5[C@H](O)[C@H]3O)[C@H]3COC(=O)[C@H]23)OCO4)cc(OC)c1O [ETOPOSIDE]
- TERMINAL_BW (3 h): 200.9 g
- APTT (3 h): 16.9 s
- Bas (3 h): 0%
- Eos (3 h): 1.2%
- Fbg (3 h): 201 mg/dL
- Hb (3 h): 13.4 g/dL
- Ht (3 h): 39.9%
- Lym (3 h): 76.4%
- MCH (3 h): 22.1 pg
- MCHC (3 h): 33.7%
- MCV (3 h): 65.7 fL
- Mono (3 h): 8%
- Neu (3 h): 14.8%
- PT (3 h): 12.3 s
- Plat (3 h): 115.3 x10_4/uL
- RBC (3 h): 606.6 x10_4/ul
- Ret (3 h): 10.2%
- WBC (3 h): 99.6 x10_2/uL
- KIDNEY_L (3 h): 0.9 g
- KIDNEY_R (3 h): 0.9 g
- KIDNEY_TOTAL (3 h): 1.9 g
- LIVER (3 h): 9.4 g
- ALP (3 h): 896.4 IU/L
- ALT (3 h): 34.2 IU/L
- AST (3 h): 67.2 IU/L
- BUN (3 h): 13 mg/dL
- CRE (3 h): 0.5 mg/dL
- Ca (3 h): 10.7 mg/dL
- Cl (3 h): 104.6 meq/L
- DBIL (3 h): 0.012 mg/dL
- GLC (3 h): 192.8 mg/dL
- IP (3 h): 9 mg/dL
- K (3 h): 4.5 meq/L
- LDH (3 h): 114.2 IU/L
- Na (3 h): 141.8 meq/L
- PL (3 h): 134 mg/dL
- RALB (3 h): 3.5 g/dL
- TBIL (3 h): 0.3 mg/dL
- TC (3 h): 75.8 mg/dL
- TG (3 h): 46.4 mg/dL
- TP (3 h): 5.4 g/dL
- gamma-GTP (3 h): 2 IU/L
- TERMINAL_BW (6 h): 198.3 g
- APTT (6 h): 16.9 s
- Bas (6 h): 0%
- Eos (6 h): 1%
- Fbg (6 h): 194.4 mg/dL
- Hb (6 h): 13.6 g/dL
- Ht (6 h): 40.8%
- Lym (6 h): 79.8%
- MCH (6 h): 21.6 pg
- MCHC (6 h): 33.3%
- MCV (6 h): 64.9 fL
- Mono (6 h): 6.4%
- Neu (6 h): 13.2%
- PT (6 h): 11.8 s
- Plat (6 h): 110.4 x10_4/uL
- RBC (6 h): 629.6 x10_4/ul
- Ret (6 h): 9.8%
- WBC (6 h): 78.9 x10_2/uL
- KIDNEY_L (6 h): 1 g
- KIDNEY_R (6 h): 1 g
- KIDNEY_TOTAL (6 h): 2 g
- LIVER (6 h): 8.6 g
- ALP (6 h): 862.6 IU/L
- ALT (6 h): 35 IU/L
- AST (6 h): 66.8 IU/L
- BUN (6 h): 10.8 mg/dL
- CRE (6 h): 0.6 mg/dL
- Ca (6 h): 10.5 mg/dL
- Cl (6 h): 104.4 meq/L
- DBIL (6 h): 0.02 mg/dL
- GLC (6 h): 195.4 mg/dL
- IP (6 h): 10.2 mg/dL
- K (6 h): 4.6 meq/L
- LDH (6 h): 99.4 IU/L
- Na (6 h): 142 meq/L
- PL (6 h): 128 mg/dL
- RALB (6 h): 3.3 g/dL
- TBIL (6 h): 0.4 mg/dL
- TC (6 h): 72.2 mg/dL
- TG (6 h): 42.6 mg/dL
- TP (6 h): 5.2 g/dL
- gamma-GTP (6 h): 0.8 IU/L
- TERMINAL_BW (9 h): 198.7 g
- APTT (9 h): 16.8 s
- Bas (9 h): 0%
- Eos (9 h): 0.6%
- Fbg (9 h): 184.6 mg/dL
- Hb (9 h): 13.5 g/dL
- Ht (9 h): 39.7%
- Lym (9 h): 77%
- MCH (9 h): 22.1 pg
- MCHC (9 h): 33.9%
- MCV (9 h): 65.1 fL
- Mono (9 h): 6.8%
- Neu (9 h): 15.8%
- PT (9 h): 11 s
- Plat (9 h): 113.8 x10_4/uL
- RBC (9 h): 611 x10_4/ul
- Ret (9 h): 8.6%
- WBC (9 h): 75.9 x10_2/uL
- KIDNEY_L (9 h): 0.9 g
- KIDNEY_R (9 h): 1 g
- KIDNEY_TOTAL (9 h): 1.9 g
- LIVER (9 h): 8.1 g
- ALP (9 h): 777.2 IU/L
- ALT (9 h): 32.8 IU/L
- AST (9 h): 64.6 IU/L
- BUN (9 h): 10.2 mg/dL
- CRE (9 h): 0.6 mg/dL
- Ca (9 h): 10.6 mg/dL
- Cl (9 h): 105.6 meq/L
- DBIL (9 h): 0.036 mg/dL
- GLC (9 h): 198.8 mg/dL
- IP (9 h): 10.4 mg/dL
- K (9 h): 4.6 meq/L
- LDH (9 h): 74.6 IU/L
- Na (9 h): 143.4 meq/L
- PL (9 h): 127.2 mg/dL
- RALB (9 h): 3.4 g/dL
- TBIL (9 h): 0.4 mg/dL
- TC (9 h): 70.8 mg/dL
- TG (9 h): 35.2 mg/dL
- TP (9 h): 5.3 g/dL
- gamma-GTP (9 h): 1.6 IU/L
- TERMINAL_BW (24 h): 209.8 g
- APTT (24 h): 15.8 s
- Bas (24 h): 0%
- Eos (24 h): 1%
- Fbg (24 h): 206.6 mg/dL
- Hb (24 h): 13.3 g/dL
- Ht (24 h): 39.5%
- Lym (24 h): 79.2%
- MCH (24 h): 21.7 pg
- MCHC (24 h): 33.7%
- MCV (24 h): 64.3 fL
- Mono (24 h): 6.6%
- Neu (24 h): 13.6%
- PT (24 h): 11.6 s
- Plat (24 h): 108.6 x10_4/uL
- RBC (24 h): 613.8 x10_4/ul
- Ret (24 h): 8.9%
- WBC (24 h): 89.3 x10_2/uL
- KIDNEY_L (24 h): 1 g
- KIDNEY_R (24 h): 1 g
- KIDNEY_TOTAL (24 h): 2 g
- LIVER (24 h): 10.2 g
- ALP (24 h): 1017 IU/L
- ALT (24 h): 33 IU/L
- AST (24 h): 68 IU/L
- CRE (24 h): 0.6 mg/dL
- Ca (24 h): 11.1 mg/dL
- Cl (24 h): 104.6 meq/L
- DBIL (24 h): 0.012 mg/dL
- GLC (24 h): 200.6 mg/dL
- IP (24 h): 8.1 mg/dL
- K (24 h): 4.6 meq/L
- LDH (24 h): 109.6 IU/L
- Na (24 h): 141.6 meq/L
- PL (24 h): 155.2 mg/dL
- RALB (24 h): 3.5 g/dL
- TBIL (24 h): 0.3 mg/dL
- TC (24 h): 87.8 mg/dL
- TG (24 h): 82.6 mg/dL
- TP (24 h): 5.5 g/dL
- gamma-GTP (24 h): 1.4 IU/L
